# Source: patent US9393288B2, “Methods of treating diseases associated with PPARγ” (The University of Vermont and State Agricultural College, priority 2012, dated 2016)
# “Also recorded” adds a separate entry of the source.
# How the values were obtained:
# [1] = tested on: parenchymal arterioles (PA); test: Pressurized arteriograph: vascular reactivity and structure of PA from female SHR; format: in vivo, rat
# Protocol: A separate group of SHR-F was used to determine if relaxin crosses the BBB by treating with relaxin (4 μg/hr) for 14 days and measuring relaxin concentration in cerebrospinal fluid (CSF) and serum (SHR-F-Rln-CSF, n=4). For the osmotic pump implant, animals were anesthetized with 3% isoflurane and minipumps implanted subcutaneously in the back of the neck. All animals received post-surgical analgesia (buprenorphine, 50 μg/kg, s.c.). Relaxin infusion was continuous for 14 days until animals were euthanized for isolated vessel experiments and tissue collection.
# After collecting trunk blood, the brain was quickly removed and placed in cold physiological salt solution (PSS). PA between the M1 and M2 region of the MCA territory and the MCA from the same animals were carefully isolated from WKY-F, SHR-F, and SHR-F-Rln groups and mounted on glass cannulas. PA were identified as branches off the MCA that penetrated into the brain tissue, as previously described (han, S. L., and Cipolla, M. J. (2011) Relaxin causes selective outward remodeling of brain parenchymal arterioles via activation of peroxisome proliferator-activated receptor-gamma. FASEB J 25, 3229-3239). […] The proximal cannula was connected to an in-line pressure transducer and a servo-null pressure control system (Living Systems Instrumentation, Burlington, Vt., USA) that allowed intravascular pressure to be maintained at a set pressure or changed at a variable rate. The distal cannula was closed during the experiment to avoid flow-mediated responses. Temperature and pH were continuously measured and maintained at 37.0±0.5° C. and 7.40±0.05, respectively. Measurements of inner diameter (ID) and wall thickness (WT) were made via video microscopy (Living Systems Instrumentation, Burlington, Vt.).
# PA and MCA were equilibrated for 1 hour, after which myogenic activity was determined by stepwise increases in pressure from 40 to 100 mmHg for PA or 50 to 175 mmHg for MCA. ID and WT were measured at each pressure once stable. Endothelium-dependent dilation was studied by adding NS309 (10^−8-10^−5 M), an activator of small- and intermediate-conductance calcium-activated potassium channels (SKCa, IKCa). NS309 was washed out of the bath and a single concentration of the nitric oxide synthase (NOS) inhibitor L-nitro-n-arginine (L-NNA, 10^−4 M) added to the bath. Constriction to NOS inhibition was used as an additional indicator of endothelial function. In the presence of L-NNA, sodium nitroprusside (SNP, 10^−8-10^−5 M) was added to the bath to assess endothelium-independent vasodilation. To obtain structural measurements, ID and WT were recorded at pressures between 5 to 200 mmHg for PA or 5 to 175 mmHg for MCA in zero-calcium PSS containing ethylene glycol tetra-acetic acid (EGTA) and outer diameter (OD) and distensibility calculated.
# Percent tone was calculated as percent decrease in ID from the passive diameter at each intravascular pressure: [1−(IDactive/IDpassive)]×100. Percent reactivity for vasodilators was calculated as ((IDdose−IDstart)/(IDpassive−IDstart))×100. Percent constriction for vasoconstrictor was calculated as (1−(IDdose/IDstart))×100. OD was calculated from measured ID and WT: ID+2WT. Distensibility at a given pressure was calculated as (IDpassive−IDoriginal)/(IDoriginal)×100, where IDoriginal is defined as passive inner diameter determined at lowest pressure (5 mmHg). Data from qPCR study were analyzed using the −2^ΔΔCT method, as described previously (Livak, K. J., and Schmittgen, T. D. (2001) Analysis of relative gene expression data using real-time quantitative PCR and the 2(−Delta Delta C(T)) Method. Methods 25, 402-408). Data were removed when the Ct values of technical replicates differed by more than 0.5.
# VEGF = VEGF expression in brain cortex (immunohistochemistry and qPCR), SHR; format: in vivo, rat; conditions: SHR-F-Rln vs SHR-F
# Protocol: After dissecting PA and MCA for isolated vessel experiments, the remaining MCA, PA, and brain cortex from the MCA territory of 4-6 rats were collected and stored at −80° C. in RNase inhibitor (1 unit/μl, RiboLock, Fermentas, Glen Burnie, Md., USA) to determine mRNA expression levels of target genes using real-time qPCR methods. Target genes were assessed using Assays on Demand from Applied Biosystems. […] All primers were designed across an exon-exon junction to avoid detecting genomic DNA, so no DNase treatment was required. Housekeeping gene β-actin was used in all qPCR experiments as a control. Standard techniques for real-time qPCR were performed by the Vermont Cancer Center DNA analysis facility at the University of Vermont, as described previously (Cipolla, M. J., Smith, J., Kohlmeyer, M. M., and Godfrey, J. A. (2009) SKCa and IKCa Channels, myogenic tone, and vasodilator responses in middle cerebral arteries and parenchymal arterioles: effect of ischemia and reperfusion. Stroke 40, 1451-1457).
# To investigate the mechanisms by which relaxin causes selectively remodeling of PA, mRNA expression of VEGF, MMP-2, and MMP-9 were compared between MCA, PA, brain cortex. To determine if relaxin activates peroxisome proliferator-activated receptor-gamma (PPARγ), expression levels of PPARγ target genes fatty acid binding protein-4 (FABP4) and plasminogen activator inhibitor-1 (PAI-1) were determined in mesenteric adipose tissue. Expression levels of PPARγ and its target genes PAI-1 and liver X receptors-α (LXR-α) were also determined in brain cortex (Chan, S. L., and Cipolla, M. J. (2012) Determination of PPARgamma activity in adipose tissue and spleen. J Immunoassay Immunochem 33, 314-324).
# Brain cortex from the MCA region from WKY-F, SHR-F and SHR-F-Rln groups was collected and fixed in 4% formaldehyde for 48 hours at 4° C. and embedded in paraffin. Brain cortex was cut into 5 μm sections. […] Staining intensity was assessed using a semi-quantitative scoring system from 0 (lowest staining intensity) to 5 (highest staining intensity) in a blinded fashion. […]
# [2] = SHR-F-Rln vs untreated SHR-F, listed as Relaxin
substance,measurement,setting,value
relaxin,Reactivity of PA to NS309 (inner diameter increased by),"[1]; NS309 10^−6 M, vs 39±11% in SHR-F, p=0.058",67±8%
same,PA inner diameter,"[1]; SHR treated with human relaxin-2 4 μg/hr 14 days, untreated groups 58±3 and 49±3, p<0.05",56±4 μm
same,PA distensibility,"[1]; SHR, relaxin 4 μg/hr 14 days, vs 10±2% in SHR-F, p<0.05",34±2%
same,Myogenic reactivity (active ID) of PA,[1]; SHR-F-Rln vs untreated SHR-F,did not affect
same,Myogenic tone (percent tone) of PA,[1]; SHR-F-Rln vs untreated SHR-F,did not affect
same,Passive ID of PA,[1]; SHR-F-Rln vs untreated SHR-F,increases the size; also recorded: increased
same,Passive OD of PA,[1]; SHR-F-Rln vs untreated SHR-F,increased
same,Passive distensibility of PA,[1]; SHR-F-Rln vs untreated SHR-F,increased
same,Myogenic tone (percent tone) of PA,[1]; [2],without affecting
same,Passive ID of PA,[1]; [2],increased
same,Passive distensibility of PA,[1]; [2],big effect; also recorded: increased
same,Reactivity of PA to the SKCa/IKCa activator NS309,[1]; [2],tended to increase; also recorded: increased
same,Passive ID of PA,"[1]; at 5 mmHg, vs 44±2 μm in SHR-F",42±3 μm
same,Kind of structural remodeling of PA,"[1]; hypertensive rats, relaxin alone",outward eutrophic remodeling
same,VEGF mRNA expression in brain cortex,VEGF,increased
same,VEGF immunoreactivity (staining intensity) in brain cortex,VEGF; p<0.05,significantly increased
same,VEGF mRNA expression in brain cortex,VEGF; listed as Relaxin,significantly increased
